Experimental data reported in PubChem BioAssay (NCI).
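Briefly, cells in 96-well plates were exposed to five compound concentrations for 48 h, and endpoints were estimated by linear interpolation. GI50 marks 50% less growth. At the TGI there is no net growth.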

Columns and labels:
Test in all cases: NCI anticancer screen, dose series, 48 h
KM12 colon = test system: KM12 colon
COLO 205 colon = test system: COLO 205 colon
SW-620 colon = test system: SW-620 colon
BT-549 breast = test system: BT-549 breast
SK-OV-3 ovarian = test system: SK-OV-3 ovarian
HT29 colon = test system: HT29 colon
M14 melanoma = test system: M14 melanoma
HCT-116 colon = test system: HCT-116 colon
SF-539 CNS = test system: SF-539 CNS
T-47D breast = test system: T-47D breast
HS 578T breast = test system: HS 578T breast
K-562 leukemia = test system: K-562 leukemia
786-0 renal = test system: 786-0 renal
MOLT-4 leukemia = test system: MOLT-4 leukemia
SK-MEL-5 melanoma = test system: SK-MEL-5 melanoma
SF-295 CNS = test system: SF-295 CNS
IGROV1 ovarian = test system: IGROV1 ovarian
LOX IMVI melanoma = test system: LOX IMVI melanoma
HOP-92 NSCLC = test system: HOP-92 NSCLC
SK-MEL-28 melanoma = test system: SK-MEL-28 melanoma
MALME-3M melanoma = test system: MALME-3M melanoma
PC-3 prostate = test system: PC-3 prostate
RPMI-8226 leukemia = test system: RPMI-8226 leukemia
MCF7 breast = test system: MCF7 breast
ACHN renal = test system: ACHN renal
NCI-H226 lung = test system: NCI-H226 lung
UO-31 renal = test system: UO-31 renal
A549 NSCLC = test system: A549 NSCLC
UACC-257 melanoma = test system: UACC-257 melanoma
OVCAR-8 ovarian = test system: OVCAR-8 ovarian
NCI-H522 lung = test system: NCI-H522 lung
CCRF-CEM leukemia = test system: CCRF-CEM leukemia
U251 CNS = test system: U251 CNS
MDA-MB-435 = test system: MDA-MB-435
SF-268 CNS = test system: SF-268 CNS
SN12C renal = test system: SN12C renal
A498 renal = test system: A498 renal
SNB-19 CNS = test system: SNB-19 CNS
NCI-H23 lung = test system: NCI-H23 lung
HOP-62 NSCLC = test system: HOP-62 NSCLC
HCC-2998 colon = test system: HCC-2998 colon
HCT-15 colon = test system: HCT-15 colon
MDA-MB-231 breast = test system: MDA-MB-231 breast
SNB-75 CNS = test system: SNB-75 CNS
HL-60(TB) leukemia = test system: HL-60(TB) leukemia
UACC-62 melanoma = test system: UACC-62 melanoma
CAKI-1 renal = test system: CAKI-1 renal
NCI-H460 lung = test system: NCI-H460 lung
SK-MEL-2 melanoma = test system: SK-MEL-2 melanoma
DU-145 prostate = test system: DU-145 prostate
OVCAR-5 ovarian = test system: OVCAR-5 ovarian
EKVX NSCLC = test system: EKVX NSCLC
OVCAR-3 ovarian = test system: OVCAR-3 ovarian
OVCAR-4 ovarian = test system: OVCAR-4 ovarian
TK-10 renal = test system: TK-10 renal
NCI/ADR-RES ovarian = test system: NCI/ADR-RES ovarian
RXF 393 renal = test system: RXF 393 renal

**Q.** With `Cn1cc(-c2nonc2-c2c[nH]c3ccccc23)c2ccccc21` as the compound, how does the GI50 (KM12 colon) read?
**A.** 396 nM

**Q.** And the TGI (KM12 colon)?
**A.** 8740 nM

**Q.** What about the GI50 (COLO 205 colon) of the same compound?
**A.** 465 nM

**Q.** And the TGI (COLO 205 colon)?
**A.** 10500 nM

**Q.** What about the GI50 (SW-620 colon) of the same compound?
**A.** 335 nM

**Q.** And the TGI (SW-620 colon)?
**A.** 15600 nM

**Q.** What about the GI50 (BT-549 breast) of the same compound?
**A.** 588 nM

**Q.** And the TGI (BT-549 breast)?
**A.** 7780 nM

**Q.** What about the GI50 (SK-OV-3 ovarian) of the same compound?
**A.** 563 nM

**Q.** What about the TGI (SK-OV-3 ovarian) of the same compound?
**A.** 18400 nM

**Q.** And the GI50 (HT29 colon)?
**A.** 350 nM

**Q.** What about the TGI (HT29 colon) of the same compound?
**A.** 10800 nM

**Q.** And the GI50 (M14 melanoma)?
**A.** 317 nM

**Q.** And the TGI (M14 melanoma)?
**A.** 12000 nM

**Q.** What about the GI50 (HCT-116 colon) of the same compound?
**A.** 404 nM

**Q.** What about the TGI (HCT-116 colon) of the same compound?
**A.** 10500 nM

**Q.** What about the GI50 (SF-539 CNS) of the same compound?
**A.** 276 nM

**Q.** And the TGI (SF-539 CNS)?
**A.** 1070 nM

**Q.** And the GI50 (T-47D breast)?
**A.** 464 nM

**Q.** What about the TGI (T-47D breast) of the same compound?
**A.** 28500 nM

**Q.** And the GI50 (HS 578T breast)?
**A.** 298 nM

**Q.** And the TGI (HS 578T breast)?
**A.** 2320 nM

**Q.** What about the GI50 (K-562 leukemia) of the same compound?
**A.** 223 nM

**Q.** And the TGI (K-562 leukemia)?
**A.** > 36900 nM

**Q.** What about the GI50 (786-0 renal) of the same compound?
**A.** 611 nM

**Q.** What about the TGI (786-0 renal) of the same compound?
**A.** 7940 nM

**Q.** What about the GI50 (MOLT-4 leukemia) of the same compound?
**A.** 499 nM

**Q.** And the TGI (MOLT-4 leukemia)?
**A.** 14800 nM

**Q.** And the GI50 (SK-MEL-5 melanoma)?
**A.** 518 nM

**Q.** And the TGI (SK-MEL-5 melanoma)?
**A.** 12900 nM

**Q.** What about the GI50 (SF-295 CNS) of the same compound?
**A.** 352 nM

**Q.** And the TGI (SF-295 CNS)?
**A.** 2970 nM

**Q.** What about the GI50 (IGROV1 ovarian) of the same compound?
**A.** 574 nM

**Q.** What about the TGI (IGROV1 ovarian) of the same compound?
**A.** 18300 nM

**Q.** What about the GI50 (LOX IMVI melanoma) of the same compound?
**A.** 650 nM

**Q.** And the TGI (LOX IMVI melanoma)?
**A.** 13000 nM

**Q.** And the GI50 (HOP-92 NSCLC)?
**A.** 1080 nM

**Q.** And the TGI (HOP-92 NSCLC)?
**A.** 9910 nM

**Q.** What about the GI50 (SK-MEL-28 melanoma) of the same compound?
**A.** 1450 nM

**Q.** And the TGI (SK-MEL-28 melanoma)?
**A.** 18100 nM

**Q.** And the GI50 (MALME-3M melanoma)?
**A.** 635 nM

**Q.** What about the TGI (MALME-3M melanoma) of the same compound?
**A.** 17700 nM

**Q.** And the GI50 (PC-3 prostate)?
**A.** 488 nM

**Q.** And the TGI (PC-3 prostate)?
**A.** 17200 nM

**Q.** What about the GI50 (RPMI-8226 leukemia) of the same compound?
**A.** 369 nM

**Q.** What about the TGI (RPMI-8226 leukemia) of the same compound?
**A.** 5960 nM

**Q.** And the GI50 (MCF7 breast)?
**A.** 329 nM

**Q.** And the TGI (MCF7 breast)?
**A.** 15300 nM

**Q.** What about the GI50 (ACHN renal) of the same compound?
**A.** 527 nM

**Q.** What about the TGI (ACHN renal) of the same compound?
**A.** 13400 nM

**Q.** And the GI50 (NCI-H226 lung)?
**A.** 1430 nM

**Q.** And the TGI (NCI-H226 lung)?
**A.** 24300 nM

**Q.** What about the GI50 (UO-31 renal) of the same compound?
**A.** 323 nM

**Q.** What about the TGI (UO-31 renal) of the same compound?
**A.** 7650 nM

**Q.** What about the GI50 (A549 NSCLC) of the same compound?
**A.** 728 nM

**Q.** What about the TGI (A549 NSCLC) of the same compound?
**A.** 22100 nM

**Q.** What about the GI50 (UACC-257 melanoma) of the same compound?
**A.** 918 nM

**Q.** What about the TGI (UACC-257 melanoma) of the same compound?
**A.** 20500 nM

**Q.** What about the GI50 (OVCAR-8 ovarian) of the same compound?
**A.** 545 nM

**Q.** And the TGI (OVCAR-8 ovarian)?
**A.** 14700 nM

**Q.** What about the GI50 (NCI-H522 lung) of the same compound?
**A.** 366 nM

**Q.** And the TGI (NCI-H522 lung)?
**A.** 9790 nM

**Q.** And the GI50 (CCRF-CEM leukemia)?
**A.** 396 nM

**Q.** What about the TGI (CCRF-CEM leukemia) of the same compound?
**A.** 27900 nM

**Q.** What about the GI50 (U251 CNS) of the same compound?
**A.** 443 nM

**Q.** And the TGI (U251 CNS)?
**A.** 18600 nM

**Q.** What about the GI50 (MDA-MB-435) of the same compound?
**A.** 182 nM

**Q.** And the TGI (MDA-MB-435)?
**A.** 494 nM

**Q.** What about the GI50 (SF-268 CNS) of the same compound?
**A.** 725 nM

**Q.** And the TGI (SF-268 CNS)?
**A.** 13200 nM

**Q.** And the GI50 (SN12C renal)?
**A.** 477 nM

**Q.** And the TGI (SN12C renal)?
**A.** 12100 nM

**Q.** And the GI50 (A498 renal)?
**A.** 435 nM

**Q.** And the TGI (A498 renal)?
**A.** 2110 nM

**Q.** What about the GI50 (SNB-19 CNS) of the same compound?
**A.** 385 nM

**Q.** And the TGI (SNB-19 CNS)?
**A.** 10900 nM

**Q.** And the GI50 (NCI-H23 lung)?
**A.** 850 nM

**Q.** And the TGI (NCI-H23 lung)?
**A.** 19500 nM

**Q.** And the GI50 (HOP-62 NSCLC)?
**A.** 470 nM

**Q.** What about the TGI (HOP-62 NSCLC) of the same compound?
**A.** 17000 nM

**Q.** And the GI50 (HCC-2998 colon)?
**A.** 1260 nM

**Q.** And the TGI (HCC-2998 colon)?
**A.** 7080 nM

**Q.** And the GI50 (HCT-15 colon)?
**A.** 354 nM

**Q.** And the TGI (HCT-15 colon)?
**A.** 11300 nM

**Q.** What about the GI50 (MDA-MB-231 breast) of the same compound?
**A.** 489 nM

**Q.** And the TGI (MDA-MB-231 breast)?
**A.** 3230 nM

**Q.** And the GI50 (SNB-75 CNS)?
**A.** 188 nM

**Q.** And the TGI (SNB-75 CNS)?
**A.** 761 nM

**Q.** And the GI50 (HL-60(TB) leukemia)?
**A.** 277 nM

**Q.** And the TGI (HL-60(TB) leukemia)?
**A.** 731 nM

**Q.** What about the GI50 (UACC-62 melanoma) of the same compound?
**A.** 341 nM

**Q.** And the TGI (UACC-62 melanoma)?
**A.** 5100 nM

**Q.** What about the GI50 (CAKI-1 renal) of the same compound?
**A.** 413 nM

**Q.** What about the TGI (CAKI-1 renal) of the same compound?
**A.** 15000 nM

**Q.** And the GI50 (NCI-H460 lung)?
**A.** 375 nM

**Q.** What about the TGI (NCI-H460 lung) of the same compound?
**A.** 7780 nM

**Q.** What about the GI50 (SK-MEL-2 melanoma) of the same compound?
**A.** 496 nM

**Q.** What about the TGI (SK-MEL-2 melanoma) of the same compound?
**A.** 14600 nM

**Q.** What about the GI50 (DU-145 prostate) of the same compound?
**A.** 511 nM

**Q.** And the TGI (DU-145 prostate)?
**A.** 12700 nM

**Q.** And the GI50 (OVCAR-5 ovarian)?
**A.** 1240 nM

**Q.** And the TGI (OVCAR-5 ovarian)?
**A.** 16400 nM

**Q.** What about the GI50 (EKVX NSCLC) of the same compound?
**A.** 567 nM

**Q.** What about the TGI (EKVX NSCLC) of the same compound?
**A.** 16000 nM

**Q.** What about the GI50 (OVCAR-3 ovarian) of the same compound?
**A.** 323 nM

**Q.** And the TGI (OVCAR-3 ovarian)?
**A.** 2010 nM

**Q.** What about the GI50 (OVCAR-4 ovarian) of the same compound?
**A.** 1520 nM

**Q.** What about the TGI (OVCAR-4 ovarian) of the same compound?
**A.** 17000 nM

**Q.** And the GI50 (TK-10 renal)?
**A.** 1550 nM

**Q.** What about the TGI (TK-10 renal) of the same compound?
**A.** 24400 nM

**Q.** And the GI50 (NCI/ADR-RES ovarian)?
**A.** 378 nM

**Q.** What about the TGI (NCI/ADR-RES ovarian) of the same compound?
**A.** 14000 nM

**Q.** What about the GI50 (RXF 393 renal) of the same compound?
**A.** 378 nM

**Q.** What about the TGI (RXF 393 renal) of the same compound?
**A.** 5700 nM
